Patent US20200080053A1, “USE OF PEPTIDE COMPOUNDS FOR PROMOTING SURVIVAL, GROWTH AND CELL DIFFERENTIATION” (Axoltis Pharma, priority 2016, published 2020)
Entries after “also recorded” stand apart in the source; their conditions may differ.

Key:
[1] = test system: 129S v/J embryonic stem cells (ESCs); test: Early differentiation of ESCs on gelatin without LIF and serum, nestin/MAP2 immunocytochemistry; assay type: cell-based
Method: 129S v/J embryonic stem cells (ESCs) were seeded at a concentration of 0.7×10^6 cells in 35 mm diameter Petri dishes covered with a gelatin substrate.
The culture medium used was the Glasgow's minimal essential medium (G-MEM) supplemented with N2 supplement.
To enable differentiation of ESCs into neuroepithelial progenitors, the culture medium was deprived of LIF (Leukemia Inhibitory factor) because LIF is a key factor of the self-renewal of ESCs.
The various tests were carried out in absence of serum because serum limits the possibility to specifically orientate the differentiation and it could hide, or at least reduce, the effects of the peptide compound of the invention.
ESCs were grown in the culture medium as defined above with addition of 0.5 mg/ml NX210 (SEQ ID NO: 6) at day 1, 3 and 5.
Then, cultures were fixed with 4% paraformaldehyde after 7 days of culture.
To analyze the differentiation of ESCs into neuroepithelial progenitors and into differentiated neurons, the various cell types were visualized by immunocytochemistry: • using a primary anti-nestin antibody (nestin=intermediate filament protein), specific of neuroepithelial progenitors, and • using a primary anti-MAP2 antibody (MAP2=microtubule associated protein 2), specific of dendrites, and thus specific of differentiated neurons.
The total number of cells was measured by labelling nuclei using bisbenzimide/Hoechst 33342, a fluorescent dye with an affinity for DNA that is commonly used to color nuclei in blue.

[2] = test system: human mesenchymal stem cells (hMSC); test: Neural differentiation of hMSCs: gene expression by real-time PCR; assay type: cell-based
Method: To investigate the neural differentiation capacity of the peptides, 25 cm^2 flasks and 12-wells culture plates were coated with sterile aqueous solutions of either NX210 or NS640 at a concentration of 80 μg/cm^2. Coatings were carried out at 37° C. and 5% CO2 over-night prior to cell plating.
On Day 0 (D0), hMSC were seeded at a concentration of 3,000 cells/cm^2 in pre-coated 25 cm^2 flasks or 12-well culture plates in complete medium and culture was placed at 37° C. in a humid environment and under 5% CO2. After 24h, medium was changed and replaced by different combinations of media containing either: MEMalpha—bFGF 12.5 ng/mL—FBS 2%—P/S 0.1%; MEMalpha—bFGF 12.5 ng/mL—FBS 10%—P/S 0.1%; MEMalpha—FBS 2%—P/S 0.1% (control condition); MEMalpha—FBS 10%—P/S 0.1% (control condition). The cells were placed at 37° C. in a humid environment and under 5% CO2, and medium was changed twice a week. On Day 8, medium was replaced by medium containing ATRA in the place of bFGF and thus was changed with: MEMalpha—ATRA […]—FBS 2%—P/S 0.1%; MEMalpha—ATRA 20 μM—FBS 10%—P/S 0.1%; MEMalpha—FBS 2%—P/S 0.1% (control condition); MEMalpha—FBS 10%—P/S 0.1% (control condition). The cells were placed at 37° C. in a humid environment and under 5% CO2. Medium was changed twice a week. […]
Total RNA was extracted using RNAeasy total purification kit following instructions of the manufacturer (Qiagen). cDNA were generated using a High-Capacity cDNA Reverse Transcription kit (Applied Biosystems) as described by the manufacturer.
The expression levels of genes (GFAP, Musashi 1, Nestin, Beta3-Tubuline, MAP-2 and GAPDH) were analyzed by real-time PCR using TaqMan gene Expression Master Mix (Applied Biosystems) on the Applied Biosystems 7900 Real time PCR system (Life technologies). Samples were analyzed in triplicates. Data were normalized using the GAPDH gene as an internal control and relative quantification (RQ) of the genes in a sample was determined according to the equation 2^−Δct.

## W-S-G-W-S-S-C-S-R-S-C-G (WSGWSSCSRSCG) [NX210]
[1]; 0.5 mg/ml NX210, 7 days of culture on gelatin, compared to culture in the absence of NX210
  population of ESCs expressing the nestin protein: reduced; also recorded: few Nestin+cells
[1]; 0.5 mg/ml NX210, 7 days of culture, no MAP2 cells in the absence of NX210
  cells expressing the MAP2 protein (differentiated neurons): some cells expressing the MAP2 protein
[1]; 0.5 mg/ml NX210, in terms of kinetics
  orientation of ESCs to the neuronal differentiation pathway: induces a preferential orientation of ESCs to the neuronal differentiation pathway
[1]; after 5 days in the presence of 0.5 mg/ml NX210, compared to control culture
  MAP2+ cells in ESCs (FIG. 2): only observed in presence of NX210
[2]; bFGF then ATRA, 2% FBS, peptide coating 80 μg/cm2
  effect of peptide coating on the increase in Nestin, βIII-Tubulin and MAP-2 gene expression: does not modify this increase
[2]; bFGF then ATRA, 10% FBS, peptide coating, vs ×0.75 without peptide (FIG. 5)
  MAP-2 expression: 1.21 ×
[2]; bFGF then ATRA, 10% FBS, peptide coating, vs ×1.2 without peptide (FIG. 5)
  Nestin expression: 2 ×
[2]; patient no 1, day 5, bFGF 10% without ATRA (FIG. 6)
  Nestin expression: 2 ×
[2]; patient no 2, D5, with bFGF (FIG. 7)
  MAP-2 expression: increased
[2]; patient no 2, after 5 days of culture, with bFGF (FIG. 7)
  βIII-Tubuline expression: maximized
[2]; patient no 2, bFGF 10% without ATRA, with or without coating (FIG. 7)
  Nestin expression: 1.95 ×
